Patent EP1022029A1, “NOOTROPIC AGENT” (priority 1997, dated 1999)

How the values were obtained:
normal ACh receptors = target: T1, normal ACh receptors (Tetronarce californica, UniProt P02710+P02712+P02714+P02718); assay: Calcium permeability of normal ACh receptors in oocytes loaded with Calcium Green; type: cell-based; details: normal solution + nefiracetam (1μM); ACh 100 µM; mean ± SD, n=7
T1 construct: expressed in transfected cells; host or cells: Xenopus oocytes
Protocol: An oocyte expressing normal ACh receptors was loaded with Calcium Green. Intracellular calcium ([Ca^2+]i) and evoked currents (IA) were recorded for each of the cases in which administration of ACh (100 µM) was carried out in a Ca^2+-free (extCa^2+(-)) extracellular solution or in an ordinary extracellular solution (Calcium Green TM-1 (Molecular Probes, Inc. USA) was injected to the oocytes). The Ca^2+ rise was normalized by Δ increase (δI) of intensity/base intensity/current amplitude (µA) obtained with calcium-free media.
In Table 15, each value represents the average from seven oocytes (SD; standard deviation). ACh-evoked currents in the Xenopus oocytes expression system are composed of acetylcholine-gated channel currents and calcium-dependent chloride currents. Nefiracetam had no effect on calcium permeability through the nACh receptor channel. (Table 15). The results from Examples 6a and 6b indicate that nefiracetam modulated acetylcholine-gated channel currents but not calcium-sensitive chloride (Cl^-) currents.

[1] = tested on: calcium-dependent chloride currents; assay: Calcium-dependent chloride currents in Xenopus oocytes; type: cell-based
Protocol: In atropine-free frog Ringer's solution, acetylcholine (Ach) (100 µM) was administered to an oocyte that had not expressed ACh receptors. The holding voltage was -30 mV.
In Xenopus oocyte expression systems, ACh-evoked currents are known to be composed of ACh-gated channel currents and calcium-dependent chloride currents (R. Miledi et al., J. Physiol. 357, 173, 1984). Nefiracetam, however, had no effect on calcium-dependent chloride currents induced by stimulation from the endogenous muscarinic ACh receptors (FIG. 2).

T1 sequence (P02710 25-461): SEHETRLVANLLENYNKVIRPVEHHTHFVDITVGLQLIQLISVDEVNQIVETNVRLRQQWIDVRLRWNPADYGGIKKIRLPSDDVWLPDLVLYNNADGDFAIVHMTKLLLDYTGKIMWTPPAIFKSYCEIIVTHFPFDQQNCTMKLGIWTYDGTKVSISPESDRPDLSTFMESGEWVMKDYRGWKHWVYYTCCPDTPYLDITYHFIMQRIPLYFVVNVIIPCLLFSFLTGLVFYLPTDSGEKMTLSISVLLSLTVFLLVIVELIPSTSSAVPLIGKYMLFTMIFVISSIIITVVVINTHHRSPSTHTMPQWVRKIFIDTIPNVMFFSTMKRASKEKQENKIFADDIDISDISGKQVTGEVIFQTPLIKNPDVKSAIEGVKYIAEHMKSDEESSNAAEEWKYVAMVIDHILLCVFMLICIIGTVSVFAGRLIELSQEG
T1 sequence (P02712 25-493): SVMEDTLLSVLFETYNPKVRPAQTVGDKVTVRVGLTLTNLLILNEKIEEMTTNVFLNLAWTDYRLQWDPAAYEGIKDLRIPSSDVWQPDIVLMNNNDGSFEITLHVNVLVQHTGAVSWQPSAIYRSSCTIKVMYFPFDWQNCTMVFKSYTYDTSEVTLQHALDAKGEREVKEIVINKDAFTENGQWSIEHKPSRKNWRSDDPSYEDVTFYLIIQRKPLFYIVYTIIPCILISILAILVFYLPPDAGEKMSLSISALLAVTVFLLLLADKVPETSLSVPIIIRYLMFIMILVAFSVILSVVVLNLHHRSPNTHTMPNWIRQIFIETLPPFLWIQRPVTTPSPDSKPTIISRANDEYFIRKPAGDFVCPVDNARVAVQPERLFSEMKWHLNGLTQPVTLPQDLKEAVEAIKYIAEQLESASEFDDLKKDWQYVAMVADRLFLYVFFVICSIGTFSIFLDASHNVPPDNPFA
T1 sequence (P02714 18-506): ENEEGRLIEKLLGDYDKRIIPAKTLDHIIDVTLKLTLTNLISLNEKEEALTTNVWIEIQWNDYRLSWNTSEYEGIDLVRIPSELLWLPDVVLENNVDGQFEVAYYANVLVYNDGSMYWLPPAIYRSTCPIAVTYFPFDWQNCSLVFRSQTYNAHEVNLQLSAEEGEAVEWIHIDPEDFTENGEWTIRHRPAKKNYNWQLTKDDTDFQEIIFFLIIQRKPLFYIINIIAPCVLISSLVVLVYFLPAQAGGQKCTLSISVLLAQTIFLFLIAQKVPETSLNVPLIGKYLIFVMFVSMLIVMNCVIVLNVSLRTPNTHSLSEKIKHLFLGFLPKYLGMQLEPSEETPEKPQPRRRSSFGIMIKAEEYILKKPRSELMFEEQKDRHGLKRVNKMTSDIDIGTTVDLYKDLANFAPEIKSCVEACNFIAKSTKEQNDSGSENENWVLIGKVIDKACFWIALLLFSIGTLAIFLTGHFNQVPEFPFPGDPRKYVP
T1 sequence (P02718 22-522): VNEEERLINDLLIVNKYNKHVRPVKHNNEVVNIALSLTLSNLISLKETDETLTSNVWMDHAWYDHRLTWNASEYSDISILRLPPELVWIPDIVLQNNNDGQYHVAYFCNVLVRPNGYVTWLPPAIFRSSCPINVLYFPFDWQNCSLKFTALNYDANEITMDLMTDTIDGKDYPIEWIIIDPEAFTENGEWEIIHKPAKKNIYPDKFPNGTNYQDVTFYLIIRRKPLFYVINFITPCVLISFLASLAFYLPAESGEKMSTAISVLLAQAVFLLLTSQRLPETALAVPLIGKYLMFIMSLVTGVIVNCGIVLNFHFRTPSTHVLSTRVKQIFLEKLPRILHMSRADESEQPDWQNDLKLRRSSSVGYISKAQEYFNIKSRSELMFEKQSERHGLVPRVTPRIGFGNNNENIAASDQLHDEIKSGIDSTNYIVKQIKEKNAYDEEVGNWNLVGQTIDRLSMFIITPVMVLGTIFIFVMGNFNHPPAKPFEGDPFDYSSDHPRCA

**Q.** What does the source list for `Cc1cccc(C)c1NC(=O)CN1CCCC1=O` [nefiracetam, 2-oxo-1-pyrrolidinylacetic acid 2,6-dimethylanilide]?
**A.** normalized Ca^2+ rise (Δ increase of intensity / base intensity / current amplitude) (normal ACh receptors): 6.6 ± 1.4; effect on calcium-dependent chloride currents induced by stimulation from the endogenous muscarinic ACh receptors (FIG. 2) ([1]; oocyte not expressing ACh receptors, atropine-free Ringer, ACh 100 µM): had no effect; effect on chloride ion (Cl^-) currents evoked by Ca^2+ influx through the nACh receptor channels ([1]; oocytes, data not shown): had no effect
